Experiments:
[1] = tested on: oxidative phosphorylation complex I; test: Slot blot method, complex I normalized to GAPDH; type: cell-based, bovine
Description: Following treatment, bovine aortic endothelial cells grown in 12 well plates are scrapped in 50 μl of lysis buffer (1% Triton X-100, 20 mm Tris, 140 mm NaCl, 2 mm EDTA, and 0.1% SDS) with protease and phosphatase inhibitor cocktails (P2714 and P2850, Sigma-Aldrich) supplemented with 0.15 mm PMSF, 5 mm Na3VO4 and 3 mm NaF. Homogenates are passed through an insulin syringe five times, sonicated for 30 min at 4° C. and centrifuged (12,000 g) for 10 min. The total protein content is measured in the supernatant using the Bradford method. A total of 10-20 μg of protein are loaded into a pre-assembled slot blot apparatus to be transferred under vacuum onto polyvinyl membranes, incubated for 1 h in blocking solution (5% non-fat dry milk in TBS plus 0.1% Tween 20 (TBS-T)), followed by a overnight incubation at 4° C. with primary antibodies (oxidative phosphorylation complex I or GAPDH). Primary antibodies are diluted in TBS-T plus 5% non-fat dry milk. Membranes are washed (3× for 5 min) in TBS-T and incubated 1 h at room temperature in the presence of HRP-conjugated secondary antibodies diluted in blocking solution. Membranes are again washed 3 times in TBS-T, and the immunoblots developed using an ECL Plus detection kit (Amersham-GE). Band intensities are digitally quantified using ImageJ software (http://www.nih.gov). Complex I values are normalized for loading differences using GAPDH after stripping and reprobing of the membrane. All Western blot images to be obtained will be within the linear range of X-ray film to ensure computer-assisted densitometry accuracy.

BCAEC = test: 3-(4,5-Dimethylthiazol-2-yl)-2,5-diphenyltetrazolium bromide (MTT) assay, mitochondrial function (MTT/Methylene Blue ratio); type: cell-based, bovine; settings: treated for 48 hours
Description: 3-(4,5-Dimethylthiazol-2-yl)-2,5-diphenyltetrazolium bromide (MTT) assay
6,000 BCAEC were seeded into clear 96-well flat bottom plates at 100 μl per well. After starvation, cells were treated for 48 hours with the corresponding compounds. Compounds were changed every 12 and 24 hours (with 100 μl per well of fresh medium). Following the treatment medium was aspirated from plates, and washed once with 100 μl HBSS, subsequently 100 μl per well 0.5 mg/ml MTT in phenol red-free DMEM was added. Plates were incubated for 1 hour at 37° C., and this was followed by aspiration of MTT solution, addition of 100 μl per well DMSO to dissolve formazan crystals, and incubation at 37° C. for 15 minutes. Mitochondrial function was quantified by absorbance was measured at 540 nm with background substraction at 670 nm using. After MTT absorbance measure, media was removed and cells quantify in each well as described elsewhere (Oliver et al, 1989) with some modifications. In brief, 100 μl of 10% formol saline to each well was added, and incubated at 4° C. for 24 hours. Next, formol solution was removed from the wells and 100 μl of filtered 0.1% (w/v) Methylene Blue in 0.01 M borate buffer (pH 8.5) was added to each well. After 30 minutes, excess dye was removed and washed off 3 times with 0.01 M borate buffer (pH 8.5). […] The plates were then gently shaken and incubated for 15 minutes under a bench rocker. Absorbance was measured at 650 nm. The MTT/Methylene Blue ratio was used to quantify the mitochondrial function. Oliver M H, Harrison N K, Bishop J E, Cole P J, Lauren G J. A rapid and convenient assay for counting cells cultured in microwell plates: application for assessment of growth factors. J Cell Sci. 1989, 3:513-8.

AMPK = AMPK activation, cell based ELISA in Hep G2 cells; settings: 1 h incubation, DMSO control as 100%
Description: AMPK Activation Protocol:
AMPK activation potential of the compounds was evaluated using cell based ELISA.
Hepatoma (Hep G2) liver cells were maintained in a T 75 culture flask-containing 25 mM DMEM+10% fetal calf serum. The cells were maintained in a T 75 culture flask-containing medium (DMEM+10% fetal calf serum). On reaching a confluence of 70 to 80%, the cells were seeded in a 96 well plate at a density of 40,000 cells per well in 25 mM DMEM+10% FCS medium. The plates were then incubated at 37° C. with 5% CO2 for 24 hours. Various concentrations of drugs were prepared in DMSO and diluted to required concentration with the medium and incubated at 37° C. with 5% CO2 for 30 min and 1 h for Epicatechin analogs and 11-BHP analogs respectively. Metformin was used as positive control. Cells were fixed with 4% formaldehyde for 30 minutes at room temperature and washed three times with PBS containing 0.1% Triton X-100. Endogenous peroxidase was quenched with 1% H2O2 in PBS-T (0.1% Tween 20) for 30 minutes and washed three times in PBS-T. Cells were blocked with 1% BSA in PBS-T for 1 hour.

Q: For `Cc1noc([C@H]2CC[C@H]3[C@@H]4CCC5=CC(=O)CC[C@]5(C)[C@H]4[C@@H](O)C[C@]23C)n1` [Compound 1012, (8S,9S,10R,11S,13S,14S,17S)-11-hydroxy-10,13-dimethyl-17-(3-methyl-1,2,4-oxadiazol-5-yl)-6,7,8,9,10,11,12,13,14,15,16,17-dodecahydro-1H-cyclopenta[a]phenanthren-3(2H)-one], which “Slot Blot Assay” value [1] is on record?
A: + (+ indicates >150% HCAEC)

Q: With `CC(=O)[C@H]1CC[C@H]2[C@@H]3CC=C4C[C@@H](O)CC[C@]4(C)[C@H]3[C@@H](O)C[C@]12C` [Compound 1002, 1-((3S,8S,9S,10R,11S,13S,14S,17S)-3,11-dihydroxy-10,13-dimethyl-2,3,4,7,8,9,10,11,12,13,14,15,16,17-tetradecahydro-1H-cyclopenta[a]phenanthren-17-yl)ethanone] as the compound, how does the “Slot Blot Assay” value [1] read?
A: + (+ indicates >150% HCAEC)

Q: `CC(=O)[C@H]1CC[C@H]2[C@@H]3CCC4=CC(=O)CC[C@]4(C)[C@H]3[C@@H](O)C[C@]12C` [Compound 1007, (8S,9S,10R,11S,13S,14S,17S)-17-acetyl-11-hydroxy-10,13-dimethyl-6,7,8,9,10,11,12,13,14,15,16,17-dodecahydro-1H-cyclopenta[a]phenanthren-3(2H)-one] was tested. Which “MTT Assay” value (BCAEC) did it give?
A: + (+ indicates >110%)

Q: How did the “MTT Assay” value (BCAEC) turn out when `CC1([C@H]2CC[C@H]3[C@@H]4CC=C5C[C@@H](O)CC[C@]5(C)[C@H]4[C@@H](O)C[C@]23C)OCCO1` [Compound 1001, (3S,8S,9S,10R,11S,13S,14S,17S)-10,13-dimethyl-17-(2-methyl-1,3-dioxolan-2-yl)-2,3,4,7,8,9,10,11,12,13,14,15,16,17-tetradecahydro-1H-cyclopenta[a]phenanthrene-3,11-diol] was run?
A: + (+ indicates >110%)

Q: For `CC(O)[C@H]1CC[C@H]2[C@@H]3CC=C4C[C@@H](O)CC[C@]4(C)[C@H]3[C@@H](O)C[C@]12C` (stereo partly drawn) [Compound 1003, (3S,8S,9S,10R,11S,13S,14S,17S)-17-(1-hydroxyethyl)-10,13-dimethyl-2,3,4,7,8,9,10,11,12,13,14,15,16,17-tetradecahydro-1H-cyclopenta[a]phenanthrene-3,11-diol], which “MTT Assay” value (BCAEC) is on record?
A: + (+ indicates >110%)

Q: Which “Slot Blot Assay” value [1] does the source give for `COC(=O)[C@H]1CC[C@H]2[C@@H]3CC=C4C[C@@H](O)CC[C@]4(C)[C@H]3[C@@H](O)C[C@]12C` [Compound 1004, (3S,8S,9S,10R,11S,13S,14S,17S)-methyl 3,11-dihydroxy-10,13-dimethyl-2,3,4,7,8,9,10,11,12,13,14,15,16,17-tetradecahydro-1H-cyclopenta[a]phenanthrene-17-carboxylate] here?
A: + (+ indicates >150% HCAEC)

Q: With `CC[C@H]1CC[C@H]2[C@@H]3CC=C4C[C@@H](O)CC[C@]4(C)[C@H]3[C@@H](O)C[C@]12C` [Compound 1009, (3S,8S,9S,10R,11S,13R,14S,17S)-17-ethyl-10,13-dimethyl-2,3,4,7,8,9,10,11,12,13,14,15,16,17-tetradecahydro-1H-cyclopenta[a]phenanthrene-3,11-diol] as the compound, how does the “Slot Blot Assay” value [1] read?
A: + (+ indicates >150% HCAEC)

Q: For `CC(O)[C@H]1CC[C@H]2[C@@H]3CCC4=C[C@@H](O)CC[C@]4(C)[C@H]3[C@@H](O)C[C@]12C` (stereo partly drawn) [Compound 1037, (3S,8S,9S,10R,11S,13S,14S,17S)-17-(1-hydroxyethyl)-10,13-dimethyl-2,3,6,7,8,9,10,11,12,13,14,15,16,17-tetradecahydro-1H-cyclopenta[a]phenanthrene-3,11-diol], which “% activation pAMPK at 1 nM” value (AMPK) is on record?
A: 95%

— US20150376225A1, “NOVEL COMPOUNDS OF 11BETA-HYDROXY-STEROIDS FOR USE IN MITOCHONDRIA BIOGENESIS AND DISEASES ASSOCIATED WITH MITOCHONDRIAL DYSFUNCTION OR DEPLETION” (SPHAERA PHARMA PVTD. LTD., priority 2013, published 2015)
